Data published in patent US11203601B2, “Tricyclic compounds as glycogen synthase kinase 3 (GSK3) inhibitors and uses thereof” (The Broad Institute, Inc., priority 2017, dated 2021).

Experiments:
Experiment in all cases: Carna kinome panel
Format in all cases: biochemical
Details in all cases: read-out: % Inhibition at 10 μM of the test compound
ROCK2 = ROCK2 (Homo sapiens (Human), UniProt O75116)
MLK2_ Cascade = MLK2_ Cascade (Homo sapiens (Human), UniProt Q02779)
Erk5 = Erk5 (Homo sapiens (Human), UniProt Q13164)
ALK(G1202R) = ALK(G1202R) (Homo sapiens (Human), UniProt Q9UM73, G1202R)
KIT(D816Y) = KIT(D816Y) (Homo sapiens (Human), UniProt P10721, D816Y)
NPM1-ALK = NPM1-ALK (Homo sapiens (Human), UniProt P06748+Q9UM73)
NPM1-ALK, sequence (Q9UM73 other isoform, or with tags, fused parts or gaps): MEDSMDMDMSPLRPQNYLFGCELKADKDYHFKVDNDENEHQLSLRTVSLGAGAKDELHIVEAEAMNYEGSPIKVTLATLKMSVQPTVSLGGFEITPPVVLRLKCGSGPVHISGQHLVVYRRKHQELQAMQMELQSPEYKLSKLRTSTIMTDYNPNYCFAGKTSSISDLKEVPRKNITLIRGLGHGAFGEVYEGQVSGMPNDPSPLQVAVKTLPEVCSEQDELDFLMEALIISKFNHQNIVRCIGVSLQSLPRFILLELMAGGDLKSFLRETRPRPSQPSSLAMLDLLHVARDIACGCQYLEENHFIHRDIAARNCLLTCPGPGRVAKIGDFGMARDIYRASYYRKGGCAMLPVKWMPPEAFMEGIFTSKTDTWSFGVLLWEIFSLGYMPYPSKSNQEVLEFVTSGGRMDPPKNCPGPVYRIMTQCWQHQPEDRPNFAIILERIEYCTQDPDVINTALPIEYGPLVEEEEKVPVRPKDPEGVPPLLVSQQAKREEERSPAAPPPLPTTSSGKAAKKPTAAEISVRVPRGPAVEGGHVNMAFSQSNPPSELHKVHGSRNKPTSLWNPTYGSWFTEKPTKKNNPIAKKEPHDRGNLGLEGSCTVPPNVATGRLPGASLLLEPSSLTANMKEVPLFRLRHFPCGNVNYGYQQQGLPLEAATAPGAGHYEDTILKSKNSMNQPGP

LCK = LCK (Homo sapiens (Human), UniProt P06239)
MAPKAPK2 = MAPKAPK2 (Homo sapiens (Human), UniProt P49137)
LTK = LTK (Homo sapiens (Human), UniProt P29376)
Protocol: Briefly, a selection of compounds was screened against a panel of kinases at a single concentration of 10 μM. […] This was completed using one of two assays, depending on the kinase being examined: 1) IMAP Assay. A solution of 4× inhibitor, 4× substrate/ATP/metal solution and 2× kinase solution was prepared with assay buffer (20 mM HEPES, 0.01% Tween-20, 2 mM DTT, pH 7.4) and mixed, then incubated in 384-well black plates for 1 hour at room temperature. The IMAP binding reagent (IMAP Screening Express kit; Molecular Devices) was added to each well and incubated for 30 minutes. […] 2) Off-Chip Mobility Shift Assay (MSA). A solution of 4× inhibitor, 4× substrate/ATP/metal solution and 2× kinase solution was prepared with assay buffer (20 mM HEPES, 0.01% Triton X-100, 2 mM DTT, pH 7.5) and mixed, then incubated in 384-well plates for 1 or 5 hours depending on the kinase, at room temperature. Termination buffer (QuickScout Screening assist MSA; Carna Biosciences) was added to each well. The entire reaction mixture was then applied to a LabChip3000 system (Caliper Life Science), and the product and substrate peptide peaks were separated and quantified. […] The entire reaction mixture was then applied to a LabChip3000 system (Caliper Life Science), and the product and substrate peptide peaks were separated and quantified.

EGFR(L861Q) = EGFR(L861Q) (Homo sapiens (Human), UniProt P00533, L861Q)
CGK2 = CGK2 (Homo sapiens (Human), UniProt Q13237)
NDR2 = NDR2 (Homo sapiens (Human), UniProt Q9Y2H1)
HIPK2 = HIPK2 (Homo sapiens (Human), UniProt Q9H2X6)
PKD1 = PKD1 (Homo sapiens (Human), UniProt Q15139)
CaMK2γ = CaMK2γ (Homo sapiens (Human), UniProt Q13555)
PDGFRα(D842V) = PDGFRα(D842V) (Homo sapiens (Human), UniProt P16234, D842V)
MSK2 = MSK2 (Homo sapiens (Human), UniProt O75676)
NEK1 = NEK1 (Homo sapiens (Human), UniProt Q96PY6)
NuaK2 = NuaK2 (Homo sapiens (Human), UniProt Q9H093)
EPHB2 = EPHB2 (Homo sapiens (Human), UniProt P29323)
PDHK4 = PDHK4 (Homo sapiens (Human), UniProt Q16654)
FES = FES (Homo sapiens (Human), UniProt P07332)
EPHA1 = EPHA1 (Homo sapiens (Human), UniProt P21709)
WNK3 = WNK3 (Homo sapiens (Human), UniProt Q9BYP7)
HIPK1 = HIPK1 (Homo sapiens (Human), UniProt Q86Z02)
RET(G691S) = RET(G691S) (Homo sapiens (Human), UniProt P07949, G691S)
RET(G691S), sequence (P07949 29-1114 G691S): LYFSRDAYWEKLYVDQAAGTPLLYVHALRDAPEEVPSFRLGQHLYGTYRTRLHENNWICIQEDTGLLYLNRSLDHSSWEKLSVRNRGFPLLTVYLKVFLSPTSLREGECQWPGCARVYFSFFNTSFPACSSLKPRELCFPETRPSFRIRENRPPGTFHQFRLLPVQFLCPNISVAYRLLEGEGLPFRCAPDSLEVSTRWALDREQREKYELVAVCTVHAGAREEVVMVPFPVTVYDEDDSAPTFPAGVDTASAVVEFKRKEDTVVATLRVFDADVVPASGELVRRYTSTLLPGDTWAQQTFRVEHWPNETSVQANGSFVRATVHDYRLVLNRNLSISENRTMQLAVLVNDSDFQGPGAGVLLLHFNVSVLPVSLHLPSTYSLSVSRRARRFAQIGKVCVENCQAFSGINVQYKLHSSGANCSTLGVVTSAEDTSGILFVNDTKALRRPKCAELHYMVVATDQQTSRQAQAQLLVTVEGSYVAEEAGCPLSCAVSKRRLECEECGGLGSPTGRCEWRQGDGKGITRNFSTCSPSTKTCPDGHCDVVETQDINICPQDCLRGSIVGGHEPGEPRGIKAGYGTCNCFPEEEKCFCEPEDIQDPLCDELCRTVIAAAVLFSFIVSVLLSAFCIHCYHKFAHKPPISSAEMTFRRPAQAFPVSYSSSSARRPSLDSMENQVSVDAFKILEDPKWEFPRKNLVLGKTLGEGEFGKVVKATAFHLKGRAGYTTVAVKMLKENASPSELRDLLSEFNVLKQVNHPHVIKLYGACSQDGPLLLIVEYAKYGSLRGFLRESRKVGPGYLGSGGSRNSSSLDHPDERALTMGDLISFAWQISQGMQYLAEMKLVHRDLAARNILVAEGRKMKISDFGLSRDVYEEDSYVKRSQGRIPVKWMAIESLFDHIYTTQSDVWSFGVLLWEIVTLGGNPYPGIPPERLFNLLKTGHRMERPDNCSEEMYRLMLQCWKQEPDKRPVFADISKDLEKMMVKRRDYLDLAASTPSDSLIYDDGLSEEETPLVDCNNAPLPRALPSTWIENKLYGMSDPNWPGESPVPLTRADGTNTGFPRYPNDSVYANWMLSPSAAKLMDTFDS

PHKG2 = PHKG2 (Homo sapiens (Human), UniProt P15735)
RET(M918T) = RET(M918T) (Homo sapiens (Human), UniProt P07949, M918T)
RET(M918T), sequence (P07949 29-1114 M918T): as the sequence (P07949 29-1114 G691S) above, with S663G, M890T counted along it

CLK2 = CLK2 (Homo sapiens (Human), UniProt P49760)
MARK4 = MARK4 (Homo sapiens (Human), UniProt Q96L34)
ALK(R1275Q) = ALK(R1275Q) (Homo sapiens (Human), UniProt Q9UM73, R1275Q)
ROS = ROS (Homo sapiens (Human), UniProt P08922)
ROS, sequence (P08922 28-2347): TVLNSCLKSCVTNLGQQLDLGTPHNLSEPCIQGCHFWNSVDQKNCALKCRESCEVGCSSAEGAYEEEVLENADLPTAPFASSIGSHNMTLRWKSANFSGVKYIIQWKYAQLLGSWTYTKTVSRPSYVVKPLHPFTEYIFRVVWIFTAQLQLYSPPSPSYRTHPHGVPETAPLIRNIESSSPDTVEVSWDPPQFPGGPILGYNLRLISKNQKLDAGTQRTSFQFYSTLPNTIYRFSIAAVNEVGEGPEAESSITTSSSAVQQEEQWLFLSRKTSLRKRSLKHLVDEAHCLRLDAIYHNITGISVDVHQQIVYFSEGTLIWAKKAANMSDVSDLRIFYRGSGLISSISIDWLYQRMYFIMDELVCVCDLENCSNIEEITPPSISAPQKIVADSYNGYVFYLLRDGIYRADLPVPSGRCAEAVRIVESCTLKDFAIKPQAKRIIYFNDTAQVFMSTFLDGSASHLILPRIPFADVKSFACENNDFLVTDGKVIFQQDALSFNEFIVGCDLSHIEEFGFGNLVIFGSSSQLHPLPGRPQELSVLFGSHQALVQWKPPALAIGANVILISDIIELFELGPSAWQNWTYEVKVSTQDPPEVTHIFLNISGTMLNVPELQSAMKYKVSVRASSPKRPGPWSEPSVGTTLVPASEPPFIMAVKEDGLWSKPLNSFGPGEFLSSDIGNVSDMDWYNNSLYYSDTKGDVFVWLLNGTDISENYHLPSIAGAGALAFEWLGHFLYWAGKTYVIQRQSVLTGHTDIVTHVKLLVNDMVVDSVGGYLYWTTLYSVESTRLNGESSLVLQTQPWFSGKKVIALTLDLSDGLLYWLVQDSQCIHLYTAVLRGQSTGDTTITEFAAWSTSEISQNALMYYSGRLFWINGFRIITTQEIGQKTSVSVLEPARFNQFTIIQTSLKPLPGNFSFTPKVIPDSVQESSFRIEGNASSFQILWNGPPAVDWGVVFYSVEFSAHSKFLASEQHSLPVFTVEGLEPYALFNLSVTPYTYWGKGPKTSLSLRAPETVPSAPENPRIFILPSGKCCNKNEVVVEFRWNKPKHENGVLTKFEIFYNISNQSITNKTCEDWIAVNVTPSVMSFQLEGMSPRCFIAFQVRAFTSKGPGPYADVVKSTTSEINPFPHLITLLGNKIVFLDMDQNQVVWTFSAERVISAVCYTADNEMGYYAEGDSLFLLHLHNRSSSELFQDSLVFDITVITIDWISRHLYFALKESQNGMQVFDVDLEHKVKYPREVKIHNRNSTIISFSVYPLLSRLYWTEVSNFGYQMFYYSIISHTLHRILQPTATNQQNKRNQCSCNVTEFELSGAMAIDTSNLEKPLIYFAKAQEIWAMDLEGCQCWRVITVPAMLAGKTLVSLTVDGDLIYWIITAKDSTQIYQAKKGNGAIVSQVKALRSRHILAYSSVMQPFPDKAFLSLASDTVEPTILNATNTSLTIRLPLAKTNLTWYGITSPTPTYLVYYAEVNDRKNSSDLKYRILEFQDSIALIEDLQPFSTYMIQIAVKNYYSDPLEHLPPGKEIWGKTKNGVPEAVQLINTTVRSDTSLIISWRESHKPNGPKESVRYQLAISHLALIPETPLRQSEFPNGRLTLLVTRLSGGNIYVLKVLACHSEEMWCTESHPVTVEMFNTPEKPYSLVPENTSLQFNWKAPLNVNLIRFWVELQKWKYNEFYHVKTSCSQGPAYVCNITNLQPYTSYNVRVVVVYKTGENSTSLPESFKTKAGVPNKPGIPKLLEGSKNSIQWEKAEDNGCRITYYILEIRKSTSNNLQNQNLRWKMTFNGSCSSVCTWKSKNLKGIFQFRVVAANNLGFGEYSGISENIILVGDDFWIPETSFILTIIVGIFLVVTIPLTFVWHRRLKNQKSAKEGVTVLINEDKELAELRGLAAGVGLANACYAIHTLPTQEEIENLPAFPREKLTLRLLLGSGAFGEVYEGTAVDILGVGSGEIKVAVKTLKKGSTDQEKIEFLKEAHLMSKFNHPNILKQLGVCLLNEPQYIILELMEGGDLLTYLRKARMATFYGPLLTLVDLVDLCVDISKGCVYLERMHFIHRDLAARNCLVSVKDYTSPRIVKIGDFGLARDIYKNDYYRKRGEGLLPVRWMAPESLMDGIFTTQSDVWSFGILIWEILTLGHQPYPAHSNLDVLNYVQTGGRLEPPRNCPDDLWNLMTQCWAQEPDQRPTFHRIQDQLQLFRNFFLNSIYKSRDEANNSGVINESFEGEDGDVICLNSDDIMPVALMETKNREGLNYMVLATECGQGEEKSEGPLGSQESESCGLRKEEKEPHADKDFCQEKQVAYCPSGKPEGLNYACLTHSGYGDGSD

KDR = KDR (Homo sapiens (Human), UniProt P35968)
CSK = CSK (Homo sapiens (Human), UniProt P41240)
p38δ = p38δ (Homo sapiens (Human), UniProt O15264)
ALK(L1196M) = ALK(L1196M) (Homo sapiens (Human), UniProt Q9UM73, L1196M)
SGK2 = SGK2 (Homo sapiens (Human), UniProt Q9HBY8)
SGK2, sequence (Q9HBY8 whole entry): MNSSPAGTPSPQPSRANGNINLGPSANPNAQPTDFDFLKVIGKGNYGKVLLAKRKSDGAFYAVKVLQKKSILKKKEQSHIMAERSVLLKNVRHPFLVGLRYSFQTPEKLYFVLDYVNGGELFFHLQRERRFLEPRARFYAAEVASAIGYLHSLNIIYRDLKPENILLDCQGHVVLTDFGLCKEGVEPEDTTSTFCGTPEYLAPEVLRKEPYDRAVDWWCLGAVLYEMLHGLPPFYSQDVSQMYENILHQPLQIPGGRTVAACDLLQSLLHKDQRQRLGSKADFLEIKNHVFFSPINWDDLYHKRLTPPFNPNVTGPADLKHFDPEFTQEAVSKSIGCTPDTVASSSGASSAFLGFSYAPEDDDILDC

PDGFRα = PDGFRα (Homo sapiens (Human), UniProt P16234)
CK1α = CK1α (Homo sapiens (Human), UniProt P48729)
CK1α, sequence (P48729 whole entry): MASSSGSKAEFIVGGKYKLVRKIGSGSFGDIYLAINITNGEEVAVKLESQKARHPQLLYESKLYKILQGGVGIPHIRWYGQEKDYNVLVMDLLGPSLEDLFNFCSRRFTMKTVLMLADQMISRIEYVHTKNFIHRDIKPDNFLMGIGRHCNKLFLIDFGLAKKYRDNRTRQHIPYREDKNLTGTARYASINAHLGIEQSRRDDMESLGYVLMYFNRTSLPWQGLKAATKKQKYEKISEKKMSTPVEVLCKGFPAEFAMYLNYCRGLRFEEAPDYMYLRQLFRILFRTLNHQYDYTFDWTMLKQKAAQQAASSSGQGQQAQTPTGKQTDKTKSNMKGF

MRCKα = MRCKα (Homo sapiens (Human), UniProt Q5VT25)

CCC1(c2ccccc2)C2=C(CC(C)(C)CC2=O)Nc2ncsc21 (stereo not shown) [Compound 1, 9-Ethyl-6,6-dimethyl-9-phenyl-5,6,7,9-tetrahydrothiazolo[4,5-b]quinolin-8(4H)-one]
inhibition at 10 µM (ROCK2): -3.1%
inhibition at 10 µM (MLK2_ Cascade): 16.1%
inhibition at 10 µM (Erk5): -0.6%
inhibition at 10 µM (ALK(G1202R)): -5%
inhibition at 10 µM (KIT(D816Y)): -4.7%
inhibition at 10 µM (NPM1-ALK): -7.5%
inhibition at 10 µM (LCK): 1.7%
inhibition at 10 µM (MAPKAPK2): -13.4%
inhibition at 10 µM (LTK): 3.1%
inhibition at 10 µM (EGFR(L861Q)): -6.1%
inhibition at 10 µM (CGK2): -1.6%
inhibition at 10 µM (NDR2): -1.2%
inhibition at 10 µM (HIPK2): -2.5%
inhibition at 10 µM (PKD1): 1%
inhibition at 10 µM (CaMK2γ): -5.2%
inhibition at 10 µM (PDGFRα(D842V)): -3.4%
inhibition at 10 µM (MSK2): 0.7%
inhibition at 10 µM (NEK1): 7.5%
inhibition at 10 µM (NuaK2): 1.5%
inhibition at 10 µM (EPHB2): 14.5%
inhibition at 10 µM (PDHK4): 8.3%
inhibition at 10 µM (FES): -6.2%
inhibition at 10 µM (EPHA1): 2%
inhibition at 10 µM (WNK3): 0.3%
inhibition at 10 µM (HIPK1): 0.3%
inhibition at 10 µM (RET(G691S)): 2.8%
inhibition at 10 µM (PHKG2): -5%
inhibition at 10 µM (RET(M918T)): 0.6%
inhibition at 10 µM (CLK2): 0.9%
inhibition at 10 µM (MARK4): -15.7%
inhibition at 10 µM (ALK(R1275Q)): -8%
inhibition at 10 µM (ROS): -0.2%
inhibition at 10 µM (KDR): 0.2%
inhibition at 10 µM (CSK): 6.1%
inhibition at 10 µM (p38δ): 18%
inhibition at 10 µM (ALK(L1196M)): -5.2%
inhibition at 10 µM (SGK2): -8.7%
inhibition at 10 µM (PDGFRα): -10.1%
inhibition at 10 µM (CK1α): 4.3%
inhibition at 10 µM (MRCKα): 3.3%
